According to DBAASP:
Converted amounts (≈) assume the structure as drawn.

What was measured:
Assay in all cases: ≥ marks a high value that may be exact or a test limit, other limits are often not marked, values filed in µg/mL are converted to µM
[1] = tested on: Candida albicans ATCC 2048
[2] = tested on: Candida parapsilosis ATCC 20224
Candida krusei ATCC 6258 = tested on: Candida krusei ATCC 6258
[3] = tested on: Candida glabrata ATCC 90525
[4] = tested on: Candida tropicalis ATCC 20240
[5] = tested on: Candida albicans ATCC 18804
Escherichia coli MG1655 = tested on: Escherichia coli MG1655
[6] = tested on: Staphylococcus aureus ATCC 33592
[7] = tested on: Micrococcus luteus 1D00051
[8] = tested on: Vibrio vulnificus 1H00066
[9] = tested on: Staphylococcus aureus 1D00101
[10] = tested on: Staphylococcus epidermidis
[11] = tested on: Escherichia coli K12 MG1655
Escherichia coli UTI89 = tested on: Escherichia coli UTI89
[12] = tested on: Salmonella enterica subsp. enterica serovar Typhimurium ATCC 14028
[13] = tested on: Klebsiella pneumoniae ATCC 700603
[14] = tested on: Pseudomonas aeruginosa ATCC 10145
Escherichia coli D31 = tested on: Escherichia coli D31
[15] = tested on: Staphylococcus aureus ATCC 27660
[16] = tested on: Acinetobacter baumannii BCRC 14B0100
[17] = tested on: Escherichia coli BCRC 13B0207
[18] = tested on: Acinetobacter baumannii BCRC 14B0097
[19] = tested on: Acinetobacter baumannii BCRC 14B0091
[20] = tested on: Enterococcus faecium BCRC 15B0132
[21] = tested on: Escherichia coli BCRC 13B0198
[22] = tested on: Candida parapsilosis ATCC 22019
[23] = tested on: Enterococcus faecalis KCCM 11814
[24] = tested on: Salmonella typhimurium KCTC 1926
[25] = tested on: Staphylococcus epidermidis KCTC 1917
[26] = tested on: Pseudomonas aeruginosa CCARM 2180
[27] = tested on: Enterococcus faecalis KCCM 29212
[28] = tested on: Enterococcus faecium KCCM 12118
[29] = tested on: Enterococcus faecium ATCC 51559
[30] = tested on: Candida albicans ATCC 90028
[31] = tested on: Acinetobacter baumannii KCCM 40203
[32] = tested on: Trichosporon beigelii KCTC 7707
[33] = tested on: Acinetobacter baumannii ATCC BAA-1605
[34] = tested on: Escherichia coli KCTC 1682
[35] = tested on: Bacillus subtilis KCTC 3068
[36] = tested on: Malassezia furfur KCTC 7744
[37] = tested on: Escherichia coli ATCC 25922
[38] = tested on: Salmonella typhimurium CMCC 50013
[39] = tested on: Staphylococcus aureus ATCC 29213

CC(C)C[C@H](NC(=O)[C@H](C)N)C(=O)N[C@@H](CCC(N)=O)C(=O)NCC(=O)N[C@@H](C)C(=O)N[C@@H](CCCCN)C(=O)N[C@@H](CCC(=O)O)C(=O)N[C@@H](CCCN=C(N)N)C(=O)N[C@@H](C)C(=O)N[C@@H](Cc1cnc[nH]1)C(=O)N[C@@H](CCC(N)=O)C(=O)N[C@@H](CCC(N)=O)C(=O)O [ALQGAKERAHQQ]
MIC [1]: ≥ 280 µM
MIC [2]: ≥ 270 µM
MIC (Candida krusei ATCC 6258): ≥ 270 µM
MIC [3]: ≥ 260 µM
MIC [4]: ≥ 75 µM

CC[C@H](C)[C@H](NC(C)=O)C(=O)N[C@@H](CCCCN)C(=O)N[C@@H](CCCN=C(N)N)C(=O)N[C@@H](CC(C)C)C(=O)N[C@@H](CC(N)=O)C(=O)N[C@@H](CO)C(=O)N[C@@H](Cc1c[nH]c2ccccc12)C(=O)N[C@@H](CC(C)C)C(=O)N[C@@H](CCCN=C(N)N)C(=O)N[C@@H](CCCCN)C(N)=O [IKRLNSWLRK]
MIC [5]: ≥ 128 µM
MIC (Escherichia coli MG1655): ≥ 64 µM
MIC [6]: ≥ 128 µM

CC[C@H](C)[C@H](NC(=O)[C@H](CCCN=C(N)N)NC(=O)[C@@H](NC(=O)[C@H](CCSC)NC(=O)[C@@H]1CCCN1C(=O)CNC(=O)[C@H](Cc1cnc[nH]1)NC(=O)[C@@H](NC(=O)[C@H](CCCCN)NC(=O)[C@H](CCCN=C(N)N)NC(=O)[C@H](CCCN=C(N)N)NC(=O)[C@H](CCCN=C(N)N)NC(=O)[C@H](CS)NC(=O)[C@@H](N)CCCCN)C(C)C)[C@@H](C)CC)C(=O)N[C@@H](CCCN=C(N)N)C(=O)N[C@@H](CCCCN)C(=O)N[C@@H](CCCCN)C(=O)O [KCRRRKVHGPMIRIRKK]
MIC [7]: 9 µM (≈ 19.5 µg/mL)
MIC [8]: ≥ 80 µM
MIC [9]: 4 µM (≈ 8.65 µg/mL)

CC[C@H](C)[C@H](NC(=O)[C@H](CCCCN)NC(=O)[C@@H](N)CCCCN)C(=O)NCC(=O)N[C@@H](CCC(N)=O)C(=O)N[C@@H](CCCCN)C(=O)N[C@H](C(=O)N[C@@H](CCCCN)C(=O)N[C@@H](CC(N)=O)C(=O)N[C@@H](Cc1ccccc1)C(=O)N[C@@H](Cc1ccccc1)C(=O)N[C@@H](CCC(N)=O)C(=O)N[C@@H](CCCCN)C(=O)N[C@@H](CC(C)C)C(=O)O)[C@@H](C)CC [KKIGQKIKNFFQKL]
MIC [10]: ≥ 50 µM
MIC [11]: ≥ 50 µM
MIC (Escherichia coli UTI89): ≥ 50 µM
MIC [12]: > 50 µM

CC[C@H](C)[C@H](NC(=O)CNC(=O)[C@H](CCCCN)NC(=O)[C@H](Cc1c[nH]c2ccccc12)NC(=O)[C@H](CC(C)C)NC(=O)[C@H](CCCCN)NC(=O)[C@H](CCCCN)NC(=O)[C@H](C)NC(=O)[C@H](CCCCN)NC(=O)[C@H](CCCCN)NC(=O)[C@H](Cc1ccccc1)NC(=O)CNC(=O)[C@H](CCCCN)NC(=O)[C@H](C)NC(=O)[C@H](Cc1ccccc1)NC(=O)[C@@H](NC(=O)[C@H](CCCCN)NC(=O)[C@@H](NC(=O)[C@H](CC(C)C)NC(=O)[C@H](CCCCN)NC(=O)[C@@H](N)CCCCN)[C@@H](C)CC)C(C)C)C(=O)NCC(=O)O [KKLIKVFAKGFKKAKKLWKGIG]
MIC [13]: 1.88 µM (≈ 4.73 µg/mL)
MIC [14]: 1.88 µM (≈ 4.73 µg/mL)
MIC (Escherichia coli D31): 0.94 µM (≈ 2.37 µg/mL)
MIC [15]: 0.97 µM (≈ 2.44 µg/mL)

CC(=O)N[C@@H](CCCCN)C(=O)N[C@@H](CCCCN)C(=O)N[C@@H](Cc1c[nH]c2ccccc12)C(=O)N[C@@H](CCCN=C(N)N)C(=O)N[C@@H](CCCCN)C(=O)N[C@@H](Cc1c[nH]c2ccccc12)C(=O)N[C@@H](CC(C)C)C(=O)N[C@@H](C)C(=O)N[C@@H](CCCCN)C(=O)N[C@@H](CCCCN)C(N)=O [KKWRKWLAKK]
MIC [16]: ≥ 46.7 µM
MIC [17]: ≥ 46.7 µM
MIC [18]: ≥ 46.7 µM
MIC [19]: ≥ 46.7 µM
MIC [20]: ≥ 46.7 µM
MIC [21]: ≥ 46.7 µM

CC[C@H](C)[C@H](NC(=O)[C@H](Cc1c[nH]c2ccccc12)NC(=O)[C@H](CC(C)C)NC(=O)[C@@H](N)CC(C)C)C(=O)N[C@@H](C)C(=O)N[C@@H](CC(C)C)C(=O)N[C@@H](CCCN=C(N)N)C(=O)N[C@@H](CCCCN)C(=O)N[C@@H](CCCCN)C(N)=O [LLWIALRKK]
MIC [22]: 0.614 µM (≈ 0.699 µg/mL)
MIC [23]: ≥ 80 µM
MIC [24]: 3.51 µM (≈ 4 µg/mL)
MIC [25]: 3.51 µM (≈ 4 µg/mL)
MIC [26]: ≥ 80 µM
MIC [27]: 7.01 µM (≈ 7.99 µg/mL)
MIC [28]: 7.01 µM (≈ 7.99 µg/mL)
MIC [29]: 1.75 µM (≈ 2 µg/mL)
MIC [30]: 0.614 µM (≈ 0.699 µg/mL)
MIC [31]: ≥ 80 µM
MIC [32]: 1.32 µM (≈ 1.5 µg/mL)
MIC [33]: ≥ 80 µM
MIC [34]: 3.51 µM (≈ 4 µg/mL)
MIC [35]: 3.51 µM (≈ 4 µg/mL)
MIC [36]: 0.614 µM (≈ 0.699 µg/mL)

CC[C@H](C)[C@H](NC(=O)[C@@H](N)CO)C(=O)N[C@@H](CO)C(=O)N[C@@H](CC(C)C)C(=O)N[C@@H](CC(C)C)C(=O)N[C@@H](Cc1ccc(O)cc1)C(=O)NCC(=O)N[C@@H](CCCN=C(N)N)C(=O)N[C@@H](CCCCN)C(=O)N[C@@H](CCCCN)C(=O)N[C@@H](CCCN=C(N)N)C(=O)N[C@@H](CCCN=C(N)N)C(=O)N[C@@H](CCC(N)=O)C(=O)N[C@@H](CCCN=C(N)N)C(=O)N[C@@H](CCCN=C(N)N)C(=O)N[C@@H](CCCN=C(N)N)C(=O)O [SISLLYGRKKRRQRRR]
MIC [37]: 10.3 µM (≈ 21.4 µg/mL)
MIC [38]: 20.8 µM (≈ 43.1 µg/mL)
MIC [35]: 5.9 µM (≈ 12.2 µg/mL)
MIC [39]: 11 µM (≈ 22.8 µg/mL)
